From PubChem BioAssay AID248 (DTP/NCI, 2004)
Several values for one entry are separate records, joined by “and”; a condition that tells them apart may be missing. Identical values can stand only once. Toxic doses and inconclusive results are not listed.

System: L1210 leukemia ip in BDF1 mice, survival T/C
Assay: NCI In Vivo Anticancer Drug Screen. Data for tumor model L1210 Leukemia (intraperitoneal) in B6D2F1 (BDF1) mice
Settings: endpoint: mean survival time, higher = longer survival
Outline: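 In this screen, tumor-bearing mice given compound are compared to those given vehicle, and their survival values are reported as a treated-to-control quotient.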

[1] = dose: 100.0 mg/kg/injection, schedule: Q04DX002 (ip), vehicle: Klucel (hydroxypropylcellulose) (HPC)
[2] = dose: 200.0 mg/kg/injection, schedule: Q04DX002 (ip), vehicle: Klucel (hydroxypropylcellulose) (HPC)
[3] = dose: 100.0 mg/kg/injection, schedule: Q01DX001 (ip), vehicle: saline
[4] = dose: 200.0 mg/kg/injection, schedule: Q01DX001 (ip), vehicle: saline
[5] = dose: 50.0 mg/kg/injection, schedule: Q01DX009 (ip), vehicle: saline with Tween-80
[6] = dose: 100.0 mg/kg/injection, schedule: Q01DX009 (ip), vehicle: saline with Tween-80
[7] = dose: 200.0 mg/kg/injection, schedule: Q01DX009 (ip), vehicle: saline with Tween-80
[8] = dose: 400.0 mg/kg/injection, schedule: Q04DX002 (ip), vehicle: Klucel (hydroxypropylcellulose) (HPC)
[9] = dose: 25.0 mg/kg/injection, schedule: Q01DX009 (ip), vehicle: saline
[10] = dose: 50.0 mg/kg/injection, schedule: Q01DX009 (ip), vehicle: saline

For `O=C1OC(CN2CCOCC2)CN1/N=C/c1ccc([N+](=O)[O-])o1` (configuration not stated), the T/C (dose: 25.0 mg/kg/injection, schedule: Q01DX009 (ip), vehicle: Klucel (hydroxypropylcellulose) (HPC)) was 104 % of control, the T/C (dose: 50.0 mg/kg/injection, schedule: Q01DX009 (ip), vehicle: Klucel (hydroxypropylcellulose) (HPC)) was 92 % of control and the T/C (dose: 100.0 mg/kg/injection, schedule: Q01DX001 (ip), vehicle: saline with Tween-80) was 97 % of control. For the same compound, the T/C (dose: 100.0 mg/kg/injection, schedule: Q01DX009 (ip), vehicle: Klucel (hydroxypropylcellulose) (HPC)) was 101 % of control, the T/C [1] was 310 % of control and the T/C (dose: 100.0 mg/kg/injection, schedule: Q04DX002 (ip), vehicle: saline) was 105 % of control. For the same compound, the T/C (dose: 200.0 mg/kg/injection, schedule: Q01DX001 (ip), vehicle: saline with Tween-80) was 97 % of control, the T/C [2] was 90 % of control and the T/C (dose: 200.0 mg/kg/injection, schedule: Q04DX002 (ip), vehicle: saline) was 98 % of control. For the same compound, the T/C (dose: 400.0 mg/kg/injection, schedule: Q01DX001 (ip), vehicle: saline with Tween-80) was 104 % of control.
For `O=C(CC(O)(C(F)(F)F)C(F)(F)F)CC(O)(C(F)(F)F)C(F)(F)F`, the T/C (dose: 0.25 mg/kg/injection, schedule: Q01DX009 (ip), vehicle: other) was 111 % of control, the T/C (dose: 0.5 mg/kg/injection, schedule: Q01DX009 (ip), vehicle: other) was 107 % of control and 88 % of control and the T/C (dose: 1.0 mg/kg/injection, schedule: Q01DX009 (ip), vehicle: other) was 97 % of control. The T/C (dose: 1.0 mg/kg/injection, schedule: Q04DX003 (ip), vehicle: other) was 94 % of control, the T/C (dose: 1.25 mg/kg/injection, schedule: Q01DX009 (ip), vehicle: saline) was 95 % of control and the T/C (dose: 2.0 mg/kg/injection, schedule: Q01DX009 (ip), vehicle: other) was 108 % of control. For the same compound, the T/C (dose: 2.0 mg/kg/injection, schedule: Q04DX003 (ip), vehicle: other) was 87 % of control, the T/C (dose: 2.5 mg/kg/injection, schedule: Q01DX009 (ip), vehicle: saline with Tween-80) was 102 % of control and the T/C (dose: 2.5 mg/kg/injection, schedule: Q01DX009 (ip), vehicle: saline) was 104 % of control. The T/C (dose: 3.13 mg/kg/injection, schedule: Q04DX003 (ip), vehicle: other) was 104 % of control, the T/C (dose: 5.0 mg/kg/injection, schedule: Q01DX009 (ip), vehicle: saline with Tween-80) was 97 % of control and the T/C (dose: 5.0 mg/kg/injection, schedule: Q01DX009 (ip), vehicle: saline) was 95 % of control.
For `CC1(C)C(=O)C(C)(C)C1O`, the T/C (dose: 50.0 mg/kg/injection, schedule: Q04DX003 (ip), vehicle: saline) was 95 % of control, the T/C (dose: 75.0 mg/kg/injection, schedule: Q01DX001 (ip), vehicle: acetone) was 106 % of control and the T/C [3] was 97 % of control. For the same compound, the T/C (dose: 100.0 mg/kg/injection, schedule: Q04DX003 (ip), vehicle: saline) was 93 % of control, the T/C (dose: 150.0 mg/kg/injection, schedule: Q01DX001 (ip), vehicle: acetone) was 104 % of control and the T/C [4] was 111 % of control. The T/C (dose: 200.0 mg/kg/injection, schedule: Q04DX003 (ip), vehicle: saline) was 87 % of control and the T/C (dose: 300.0 mg/kg/injection, schedule: Q01DX001 (ip), vehicle: acetone) was 106 % of control.
For `CC(=O)OC(C#N)c1cccc([N+](=O)[O-])c1` (configuration not stated), the T/C (dose: 6.25 mg/kg/injection, schedule: Q04DX002 (ip), vehicle: Klucel (hydroxypropylcellulose) (HPC)) was 97 % of control, the T/C (dose: 12.5 mg/kg/injection, schedule: Q04DX002 (ip), vehicle: Klucel (hydroxypropylcellulose) (HPC)) was 102 % of control and the T/C (dose: 25.0 mg/kg/injection, schedule: Q04DX002 (ip), vehicle: Klucel (hydroxypropylcellulose) (HPC)) was 100 % of control and 92 % of control.
For `NCc1c(Cl)c(Cl)c(CN)c(Cl)c1Cl`, the T/C [5] was 96 % of control, the T/C (dose: 50.0 mg/kg/injection, schedule: Q04DX003 (ip), vehicle: saline with Tween-80) was 92 % of control and the T/C [6] was 94 % of control. For the same compound, the T/C (dose: 100.0 mg/kg/injection, schedule: Q04DX003 (ip), vehicle: saline with Tween-80) was 92 % of control, the T/C [7] was 88 % of control and the T/C (dose: 200.0 mg/kg/injection, schedule: Q04DX003 (ip), vehicle: saline with Tween-80) was 105 % of control.
In the case of `ClCc1ccc2ccc3cccc4ccc1c2c34`, the T/C (dose: 5.0 mg/kg/injection, schedule: Q01DX009 (ip), vehicle: carboxymethylcellulose (CMC)) was 109 % of control, the T/C (dose: 10.0 mg/kg/injection, schedule: Q01DX009 (ip), vehicle: carboxymethylcellulose (CMC)) was 110 % of control and the T/C (dose: 12.5 mg/kg/injection, schedule: Q01DX009 (ip), vehicle: carboxymethylcellulose (CMC)) was 109 % of control. The T/C (dose: 20.0 mg/kg/injection, schedule: Q01DX009 (ip), vehicle: carboxymethylcellulose (CMC)) was 121 % of control and the T/C (dose: 25.0 mg/kg/injection, schedule: Q01DX009 (ip), vehicle: carboxymethylcellulose (CMC)) was 97 % of control.
For `NC(=O)N(Cc1ccccc1)N=O`, the T/C (dose: 6.25 mg/kg/injection, schedule: Q01DX Z (ip), vehicle: carboxymethylcellulose (CMC)) was 101 % of control, the T/C (dose: 12.5 mg/kg/injection, schedule: Q01DX Z (ip), vehicle: carboxymethylcellulose (CMC)) was 116 % of control and the T/C (dose: 25.0 mg/kg/injection, schedule: Q01DX Z (ip), vehicle: carboxymethylcellulose (CMC)) was 104 % of control. The T/C (dose: 50.0 mg/kg/injection, schedule: Q01DX Z (ip), vehicle: carboxymethylcellulose (CMC)) was 110 % of control and the T/C (dose: 100.0 mg/kg/injection, schedule: Q01DX Z (ip), vehicle: carboxymethylcellulose (CMC)) was 116 % of control.
With `CC1C(=O)C(Br)C2CC(O)CCC2(C)C1C` (configuration not stated) the T/C (dose: 75.0 mg/kg/injection, schedule: Q01DX001 (ip), vehicle: saline) was 100 % of control, the T/C (dose: 150.0 mg/kg/injection, schedule: Q01DX001 (ip), vehicle: saline) was 94 % of control and the T/C (dose: 300.0 mg/kg/injection, schedule: Q01DX001 (ip), vehicle: saline) was 89 % of control.
In the case of `CC(C)N1CCC1C` (configuration not stated), the T/C (dose: 100.0 mg/kg/injection, schedule: Q04DX003 (ip), vehicle: acetone) was 96 % of control.
With `O=C(Nc1ccc(I)cc1)c1ccc([N+](=O)[O-])cc1` the T/C [1] was 99 % of control, the T/C [2] was 101 % of control and the T/C [8] was 115 % of control.
In the case of `O=[N+]([O-])c1ccc(S(=O)(=O)/N=C2\CCS(=O)(=O)c3ccccc32)cc1`, the T/C [3] was 92 % of control, the T/C [4] was 92 % of control and the T/C (dose: 400.0 mg/kg/injection, schedule: Q01DX001 (ip), vehicle: saline) was 93 % of control.
In the case of `COc1ccc(C(SCC(N)C(=O)O)(c2ccccc2)c2ccc(OC)cc2)cc1` (configuration not stated), the T/C (dose: 3.13 mg/kg/injection, schedule: Q01DX009 (ip), vehicle: saline) was 98 % of control, the T/C (dose: 6.25 mg/kg/injection, schedule: Q01DX009 (ip), vehicle: saline) was 120 % of control and the T/C (dose: 6.3 mg/kg/injection, schedule: Q01DX009 (ip), vehicle: other) was 110 % of control. The T/C (dose: 12.5 mg/kg/injection, schedule: Q01DX009 (ip), vehicle: other) was 117 % of control, the T/C [9] was 158 % of control and the T/C [10] was 96 % of control.
In the case of `c1ccc([Si](c2ccccc2)(c2ccccc2)[Si](c2ccccc2)(c2ccccc2)c2ccccc2)cc1`, the T/C (dose: 12.5 mg/kg/injection, schedule: Q01DX009 (ip), vehicle: saline) was 100 % of control, the T/C [9] was 93 % of control and the T/C [10] was 93 % of control. For the same compound, the T/C [1] was 98 % of control, the T/C [2] was 98 % of control and the T/C [8] was 87 % of control.
`OC1(c2ccccc2)CC2CCCCC2c2ccccc21` (configuration not stated) was tested, and the T/C (dose: 12.0 mg/kg/injection, schedule: Q01DX001 (ip), vehicle: saline) was 98 % of control, the T/C (dose: 25.0 mg/kg/injection, schedule: Q01DX001 (ip), vehicle: saline) was 100 % of control and the T/C (dose: 50.0 mg/kg/injection, schedule: Q01DX001 (ip), vehicle: saline) was 102 % of control.
In the case of `CCOC(=O)C[n+]1ccccc1Br`, the T/C (dose: 50.0 mg/kg/injection, schedule: Q01DX015 (ip), vehicle: water) was 90 % of control and the T/C (dose: 100.0 mg/kg/injection, schedule: Q01DX015 (ip), vehicle: water) was 100 % of control.
For `COc1ccc(/C=N\NC(=O)CNC(=O)Nc2cccc([N+](=O)[O-])c2)cc1O`, the T/C [5] was 93 % of control, the T/C [6] was 100 % of control and the T/C [7] was 96 % of control.
With `Clc1ccccc1C=NC1CCCCC1` the T/C (dose: 100.0 mg/kg/injection, schedule: Q04DX002 (ip), vehicle: saline with Tween-80) was 96 % of control, the T/C (dose: 200.0 mg/kg/injection, schedule: Q04DX002 (ip), vehicle: saline with Tween-80) was 96 % of control and the T/C (dose: 400.0 mg/kg/injection, schedule: Q04DX002 (ip), vehicle: saline with Tween-80) was 93 % of control.
